According to patent publication US20250235448A1, “COMBINATION THERAPY FOR TREATING CANCER” (AstraZeneca AB, priority 2022, published 2025):
Like-named read-outs stand apart in the source and are kept apart here.

Assays:
CYP3A4 = settings: literature statement (Gibbons 2015, Dirix 2016); cited from earlier work
CWR22Pc-R1-AD1 = test: Cell proliferation / viability assay (7 days after treatment), AC50 and HSA combination benefit; assay type: cell-based
Protocol: (§1) The following cell lines were originally obtained from ATCC:
Cell line identification was validated using the CellCheck assay (IDEXX Bioanalytics, Westbrook, ME, USA). All cell lines were validated free of virus Mycoplasma contamination using the MycoSEQ assay (Thermo Fisher Scientific, Waltham, MA, USA) or STAT-Myco assay (IDEXX Bioanalytics).
Live cell count pre- and post-treatment (7 days after treatment) was determined using CellTiter-Glo as per manufacturer's instructions (Promega, Madison, WI, USA; G7570).

LnCAP = test: as above; assay type: cell-based; settings: Homo sapiens; LnCAP (mHSPC) cells; monotherapy; mean of two independent experiments each in triplicate
Protocol: as §1
(§2) Cell line identification was validated using the CellCheck assay (IDEXX Bioanalytics, Westbrook, ME, USA). All cell lines were validated free of virus Mycoplasma contamination using the MycoSEQ assay (Thermo Fisher Scientific, Waltham, MA, USA) or STAT-Myco assay (IDEXX Bioanalytics). All cell lines were grown RPMI-1640 growth media (Corning 17-105-CV) supplemented with 10% fetal bovine serum (FBS) or, when indicated, 10% charcoal stripped FBS (ThermoFisher Scientific, 12676029) and 2 mM glutamine.
(§3) Cells in 384-well or 96-well plates were dosed using an Echo 555 (LabCyte, San Jose, CA, USA) or using the HP D300e Digital Dispenser (HP Life Science Dispensing), respectively. Live cell count pre- and post-treatment (7 days after treatment) was determined using CellTiter-Glo as per manufacturer's instructions (Promega, Madison, WI, USA; G7570).
(§4) Cell viability was determined with the Sytox Green assay as described in Davies 2012 and the AC50 calculated. The HSA (Highest Single Agent) Synergy Score was calculated according to Bernenbaum 1989.

LnCAP 95 = test: as above; assay type: cell-based; settings: LnCAP 95 (mCRPC) cells; monotherapy; mean of two independent experiments each in triplicate
Protocol: as §1, §2, §3, §4

non-metastatic CRPC = settings: patients with non-metastatic CRPC, ARAMIS trial; placebo 18.5 months; cited from earlier work

SMILES	CYP3A4 interaction (inducer / substrate) (CYP3A4)	AC50 (CWR22Pc-R1-AD1; CWR22Pc-R1-AD1 (mCRPC) cells, monotherapy, mean of two independent experiments each in triplicate, read-out: AC50) [nM]	AC50 (LnCAP) [nM]	AC50 (LnCAP 95) [nM]	AC50 (CWR22Pc-R1-AD1) [nM]	metastasis free survival (non-metastatic CRPC) [months]
CNC(=O)c1ccc(N2C(=S)N(c3ccc(C#N)c(C(F)(F)F)c3)C(=O)C2(C)C)cc1F [enzalutamide]	strong CYP3A4 inducer	–	–	–	–	–
CCc1cc2ncc(CN3CCN(c4ccc(C(=O)NC)nc4)CC3)cc2[nH]c1=O [AZD5305, 5-{4-[(7-ethyl-6-oxo-5,6-dihydro-1,5-naphthyridin-3-yl)methyl]piperazin-1-yl}-N-methylpyridine-2-carboxamide]	–	5.66	285	700	–	–
O=C(c1cc(Cc2n[nH]c(=O)c3ccccc23)ccc1F)N1CCN(C(=O)C2CC2)CC1 [Olaparib]	substrate of CYP3A4	–	–	–	–	–
CC(O)c1cc(C(=O)N[C@@H](C)Cn2ccc(-c3ccc(C#N)c(Cl)c3)n2)n[nH]1 (stereo partly drawn) [Darolutamide, N—((S)-1-(3-(3-chloro-4-cyanophenyl)-1H-pyrazol-1-yl)propan-2-yl)-5-(1-hydroxyethyl)-1H-pyrazole-3-carboxamide]	–	–	3630	17500	65.5	40.4
